These are literature values, as cited in PMC11246588, “New 1,2,4-oxadiazole derivatives as potential multifunctional agents for the treatment of Alzheimer’s disease: design, synthesis, and biological evaluation” (BMC Chemistry, 2024).

The target in one data set is T1, AChE (Homo sapiens, UniProt P22303).
T1 construct: homogenate supernatant was added in activity ELISA wells only; from tissue; host or cells: brain homogenate supernatant
More on the design: method as in PMID 18550375, PMID 33017743, PMID 36223681, PMID 34752955, PMID 26077890. The note with it: Fig. 1; ref [50]–[55]; cited from earlier work.

The subject of the next data set is GSK-3β. More on the design: method as in PMID 18550375, PMID 33017743, PMID 36223681, PMID 34752955, PMID 26077890. Conditions: Fig. 1; ref [50]–[55]; cited from earlier work.
On the set-up of data set [1]: method as in PMID 18550375, PMID 33017743, PMID 36223681, PMID 34752955, PMID 26077890. The note with it: Fig. 1; ref [50]–[55]; read-out: Anti-neuroinflammatory potency (IC50); cited from earlier work.
The next data set deals with BChE. More on the design: method as in PMID 18550375, PMID 33017743, PMID 36223681, PMID 34752955, PMID 26077890. The note with it: Fig. 1; ref [50]–[55]; cited from earlier work.
The subject of a further data set is Aβ self-aggregation. More on the design: method as in PMID 18550375, PMID 33017743, PMID 36223681, PMID 34752955, PMID 26077890. Conditions: Fig. 1; ref [50]–[55]; cited from earlier work.
The next data set has as its system hMAO B. More on the design: method as in PMID 18550375, PMID 33017743, PMID 36223681, PMID 34752955, PMID 26077890. Conditions: Fig. 1; ref [50]–[55]; cited from earlier work.

T1 sequence (P22303 32-614): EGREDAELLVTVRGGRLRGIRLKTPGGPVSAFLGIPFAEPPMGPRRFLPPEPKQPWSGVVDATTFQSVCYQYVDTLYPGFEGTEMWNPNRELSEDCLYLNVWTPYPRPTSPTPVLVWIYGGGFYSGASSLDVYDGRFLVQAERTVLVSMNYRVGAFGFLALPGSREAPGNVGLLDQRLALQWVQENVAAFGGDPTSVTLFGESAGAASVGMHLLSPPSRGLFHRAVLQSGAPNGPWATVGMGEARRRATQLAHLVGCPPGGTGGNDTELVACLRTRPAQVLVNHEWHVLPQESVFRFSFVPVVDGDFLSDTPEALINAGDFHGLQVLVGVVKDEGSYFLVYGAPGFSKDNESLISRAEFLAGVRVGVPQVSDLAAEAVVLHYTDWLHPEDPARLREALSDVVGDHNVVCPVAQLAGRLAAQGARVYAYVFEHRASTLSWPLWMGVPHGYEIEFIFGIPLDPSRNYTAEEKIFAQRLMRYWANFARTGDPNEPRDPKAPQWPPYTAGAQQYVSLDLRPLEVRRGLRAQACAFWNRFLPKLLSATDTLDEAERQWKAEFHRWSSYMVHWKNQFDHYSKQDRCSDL

Take `Cc1cc(-c2noc(-c3ccc(OCC4CCN(Cc5cccc(F)c5)CC4)cc3)n2)ccn1` [III]: the IC50 (in general, the concentration that gives 50% inhibition) on AChE is 0.07 µM.
As to `CC(C)(C)c1ccc(S(=O)(=O)Nc2ccc(-c3nc(-c4ccnc(Nc5ccccc5Cl)c4)no3)cc2)cc1` [II], the IC50 with GSK-3β is 0.19 µM; in data set [1], 6.94 µM.
Consider `O=C(CNc1ccc(F)cc1)Nc1ccc(-c2nc(-c3ccnc(Nc4ccc(OC(F)(F)F)cc4)c3)no2)cc1` [IV], for which the IC50 in the data set with BChE was 1.28 µM. The “Inhibited Aβ self-aggregation” value in the data set with Aβ self-aggregation is listed as 51.91%.
As to `COc1cc(-c2ccc(-c3nc(-c4ccc5[nH]ncc5c4)no3)cc2)cc(OC)c1OC` [VI], in the data set with hMAO B, the IC50 is 0.052 µM.
For the compound `COc1ccc(-c2noc(Cn3cc(Cn4c5ccccc5c(=O)c5ccccc54)nn3)n2)cc1` [V], on AChE, the IC50 was 11.5 µM.
